Reference: US4665098A, “Pharmaceutical composition of N-(4-hydroxyphenyl) retinamide having increased bioavailability” (McNeilab, Inc., priority 1985, dated 1987)

Legend:
[1] = Stability of 4-EPR internal standard solution stored in the refrigerator; format: physicochemical; settings: six months
Procedure: Assay is by high pressure liquid chromatography using a Waters HPLC System consisting of a Model 6000A solvent delivery system with a Model 440 UV absorbance detector (365 nm filter), and either a Model U6K injector (2 ml sample loop) or a Waters Intelligent Sample Processor (WISP™). […] The column is a 10 cm×4.6 mm (i.d.) Brownlee Labs RP-18 Spheri-5 (5μ) stainless steel column equipped with a 3 cm×4.6 mm (i.d.) Brownlee Labs RP-18 (10μ) stainless steel guard column. The mobile phase is acetonitrile:water:glacial acetic acid (75:23:2, v/v/v) and is prepared in 2 liter quantities. The components of the mobile phase are mixed together, filtered through a 5 μm Millipore® filter apparatus and degassed under vacuum for one-half hour while stirring. The internal standard for the assay is N-(4-ethoxyphenyl)retinamide (4-EPR). […]
The procedure of Example 1 is followed using a 4 -EPR internal standard containing 100 μg/ml which is prepared by weighing 10.0 mg of 4-EPR into a 100 ml volumetric flask and bringing to volume with methanol. A 1/2000 dilution of this stock solution is made by transferring 0.1 ml of 100 μg/ml 4-EPR solution into a 200 ml volumetric flask and bringing to volume with methanol. The resulting solution contains 50 ng/ml of 4-EPR. […] For the assay, a 1.0 ml aliquot of plasma is transferred to a 15 ml screw-cap conical bottomed glass centrifuge tube. […]

[2] = test system: rats; settings: oral; cited from earlier work
[3] = Bioavailability of HPR in vivo (general statements); settings: small particle size of the HPR
[4] = cited from earlier work
[5] = one formulation of HPR, 5 mg/kg, rats, cited from earlier work
[6] = test system: mammary cancer; settings: rats, induced with N-nitroso-N-methyl urea; cited from earlier work
[7] = cited from earlier work; remark: listed apart in the source

In the case of CCOc1ccc(NC(=O)C=C(C)C=CC=C(C)C=CC2=C(C)CCCC2(C)C)cc1 [Formulation 4-EPR, N-(4-ethoxyphenyl)retinamide], the “Stability of 4-EPR solution” value ([1]; 50 ng/ml in methanol) was “without signs of decomposition” and the “Stability of 4-EPR solution” value ([1]; 500 ng/ml in acetonitrile) was “without signs of decomposition”.
In the case of CC1=C(/C=C/C(C)=C/C=C/C(C)=C/C(=O)Nc2ccc(O)cc2)C(C)(C)CCC1 [HPR, N-(4-Hydroxyphenyl)-all-trans-retinamide], the “Toxicity relative to retinyl acetate and retinoic acid” value [2] is given as “less toxic when given orally to rats then retinyl acetate and retinoic acid”, the “Effect of small particle size on bioavailability” value [3] is given as “tends to aid bioavailability” and the Solubility in water [4] is given as “virtually insoluble in water”. For the same molecule, the Half-life of elimination ([5]; oral) was 12 h, the Oral absorption ([5]; oral) was “incompletely absorbed after oral administration” and the Elimination [5] was “eliminated slowly”. For the same molecule, the “Protection against mammary cancer” value [6] was “protects against mammary cancer in rats”.
For CC1=C(/C=C/C(C)=C/C=C/C(C)=C\C(=O)O)C(C)(C)CCC1 [isotretinoin], the “Effect of food intake on bioavailability” value [7] is listed as “affected by food intake”.
